The text below walks through data of patent publication US20200268720A1, “METHODS OF USE OF A CLASS IIA HDAC INHIBITOR” (GlaxoSmithKline LLC, priority 2016, published 2020).

“Also recorded” adds a separate entry of the source.

The subject of assay [1] is CD11b+ bone marrow derived CFSE-labeled monocytes. The experiment in a line: Monocyte tracking experiment. Type of assay: in vivo, mouse. Particulars: TMP195 treatment of recipient mice vs DMSO. As to the method: Monocyte tracking was adapted and modified from Qian et al.^35 Bone marrow cells were isolated from approximately 80 day old wild-type FVB/N virgin females. CD11b+ cells were isolated with CD11b MicroBeads (Miltenyi Biotec 130-049-601) using LS magnetic separation columns (Miltenyi Biotec 130-042-401) per manufacturer's instruction. CD11b^+ cells were incubated with 10 μM of CFSE (ThermoFisher C34554) for 15 minutes at 37° C. […] Mice were treated for an additional 5 days and tumors were harvested. The percent of CD11b^+ CFSE^+ double positive cells was assessed by flow cytometry.

The subject of assay [2] is metastatic lesions in the lung. The experiment in a line: Pulmonary metastasis analysis. Type of assay: in vivo, mouse. As for the experimental part: Lungs were removed from animals as described above. […] The number of metastatic foci are determined on sections taken every […] throughout the whole lung^3,33 and quantitation was performed blinded by an animal pathologist.

For assay [3], the system named is MMTV-PyMT tumors. The experiment in a line: Single agent efficacy on tumor burden in autochthonous MMTV-PyMT mice. Type of assay: in vivo, mouse.
Assay [4] deals with MMTV-PyMT tumors. The experiment in a line: Depletion experiments (anti-CD11b, anti-CSF1, anti-CD8, anti-CD4, anti-IFNγ). Type of assay: in vivo, mouse. As to the method: For CSF1 depletion, mice were injected IP with 1 mg of anti-CSF1 (BioXCell BE0204; clone 5A1) 1 day before treatment with vehicle or compound, and then with 0.5 mg every 5 days^3. For CD11b depletion mice were injected IP with 100 μg of anti-CD11b (clone M1/70; BioLegend 101231) one day before treatment with vehicle or compound, and then every other day.^34 For CD8 immune cell depletion, mice were injected IP with 1 mg anti-CD8 immunoglobulin (BioXCell BE0117; clone YTS169.4) or control IgG2b (BioXCell BE0090; clone LTF-2) on day 1 and then with 0.5 mg every 5 days for 2 week study. For 6-day experiment mice were dosed with: IgG1 (BioXcell BE0088; clone HRPN), α-CD8 (BioXcell BE0117; clone YTS169.4), α-CD4 (BioXcell BE0033-1; clone GK1.5) and α-INFγ (BioXcell BE0055; clone XMG1.2) with 1 mg on day 0 and 0.5 mg on day 4; except α-CD4 which was dosed at 400 μg on day 0 and 400 μg on day 4.

The subject of the next assay is tumor macrophages. The experiment in a line: Macrophage phagocytosis and activation in tumors (IHC, immunocytochemistry, flow cytometry). Type of assay: in vivo, mouse. As to the method:
Tumor cells were acquired from three DMSO and three TMP195 5-day treated autochthonous MMTV-PyMT mice. CD11b^+ cells were purified using the automacs (Miltenyi) automated machine according to manufacturer's protocol. CD11b cells were labeled with a CD11b-biotin antibody (101204, BioLegend) and retrieved with ultrapure biotin beads (Miltenyi 130-105-637). Following purification, CD11b^+ cells were cytospun at 300 rpm for 5 minutes onto slides. Cells were fixed in 4% PFA/Sucrose solution for 5 minutes at RT and stored in 4° C. until ready for use. Upon experimentation, slides were permeablized with 0.03% Triton-X for 10 minutes, followed by three 5 minute rinses with 1× PBS. Samples were blocked with 10% Normal Goat Serum (NGS) in 1×PBS for 1 hour at RT. Next cells were stained for the following antibodies anti-mouse/human CD11b (101201, BioLegend), anti-mouse F4/80 (Bio-Rad, MCA497R), and Alexa Fluor 594 anti-mouse CD326 (Ep-CAM) (118222, BioLegend) at 1:100, 1:50 and 1:25 dilution in 1% NGS/1×PBS respectively overnight at 4° C. The following morning, samples were rinsed three times with 1×PBS for five minutes each, replaced with Alexa Fluor 488 goat anti-rat IgG (405418, BioLegend) at 1:200 dilution in 1% NGS, and incubated for one hour at RT. All samples were counterstained with Dapi (P36930, Life Technologies) at 1:1000 dilution in 1% NGS. Next, the samples were rinsed three times for 5 minutes each with 1×PBS. Slides were dehydrated 2× with 95% ethanol and 1× with 100% ethanol. Coverslips were mounted using Prolong Gold antifade reagent (936930, Life Technologies) and imaged with Leica SP5X: Laser Scanning Confocal microscope at 40× magnification. For analysis immunocytochemistry images were assessed by using a co-localization pipeline. In general, the pipeline identified a primary image (nucleus) and a secondary image (CD11b^+). The overlapped images were identified as a “cell”. To avoid background signal, a minimum threshold was applied for the protein of interest (CD11b, F480 and EPCAM) and only the masked objects that had fell within the given dynamic range were considered CD11b or F480 positive. Finally the overlapped image identified as “cell” was masked with the threshold image of the EPCAM. Objects identified as positive for CD11b and EPCAM or F480 and EPCAM were normalized to the number of CD11b or F480 positive cells per image, and portrayed as an average percentage. A total of 60 individual CD11b+ cells and a total of 100 individual F480^+ cells were analyzed from each treatment group.
(In general: Flow cytometry measures light scatter and fluorescence of single cells or particles in a stream.)

In assay [5] the test system is mouse MMTV-PyMT breast tumor cell lines. The experiment in a line: In vitro cell death assay (CellTiter-Glo), mouse lines. It counts as cell-based. Particulars: 0, 0.1, 1, 10 μM, 48 hours. As to the method: The human breast cancer cell lines (BT20, MCF7, HCC202, T47D, MDA-MB-453 and MDA-MB-436) were obtained from ATCC. Prior to use, cell line authentication was performed by either STR profiling at Dana-Farber Cancer Institute or by Fluidigm based fingerprinting with a panel of SNPs at The Broad Institute. Cell lines were tested for mycoplasma with the MycoAlert PLUS Mycoplasma Detection Kit (Lonza LT07) according to manufacturer's instructions. Mouse breast tumor cell lines were established from 4 different MMTV-PyMT tumor bear mice. Mouse breast tumor cell line 7333 was implanted into wild-type littermates and once the tumor formed it was removed and used to generate the tumor cell line “MMTV”. All cells were plated at 1E4 cells/well in a 96 well plate. Cells were treated for 48 hours and CellTiter-Glo was used to assess cell viability.

As to `CC(C)(CNC(=O)c1cccc(-c2noc(C(F)(F)F)n2)c1)c1coc(-c2ccccc2)n1` [TMP195, N-(2-methyl-2-(2-phenyloxazol-4-yl)propyl)-3-(5-(trifluoromethyl)-1,2,4-oxadiazol-3-yl)benzamide], the “proportion of IV injected CD11bhiCFSE+ monocytes recruited to tumors” value in assay [1] is on record as “significant increase; also recorded: significantly enhanced”. The “metastatic lesions in the lung” value in assay [2] (initial tumor burden <400 mm^3, 24 days of treatment) is given as “significant decrease”. Further, the metastatic pulmonary lesions result in assay [2] (tumor burden 200-600 mm^3 at start, 14 days of treatment) is listed as “decrease”. Moreover, the “rate of tumor growth” value with MMTV-PyMT tumors [3] (total tumor burden 150-800 mm^3 at start, 13 days, 50 mg/kg TMP195 IP daily vs DMSO) is “significantly reduced”. Further, in the assay on MMTV-PyMT tumors [3] (total tumor burden 200-600 mm^3 at start, 50 mg/kg TMP195 IP daily vs vehicle), the “tumor burden, single agent” value is “significant reduction”. Besides, the “anti-tumor efficacy with myeloid cell depletion (anti-CD11b)” value with MMTV-PyMT tumors [4] (TMP195 50 mg/kg IP daily plus anti-CD11b) is reported as “abrogated the efficacy”. Further, the “anti-tumor efficacy with macrophage depletion (anti-CSF-1)” value in the assay on MMTV-PyMT tumors [4] (TMP195 50 mg/kg IP daily plus anti-CSF-1) is recorded as “abrogated the efficacy”. The “CD34 staining in tumor sections with IFNγ neutralization” value in the assay with MMTV-PyMT tumors [4] (TMP195 plus anti-IFNγ antibody) is listed as “failed to normalize CD34 staining”. For the same molecule, the “autochthonous tumor burden with CD4+ cell depletion” value with MMTV-PyMT tumors [4] (TMP195 plus α-CD4, 6 days) is “reduced”. Moreover, the “single agent efficacy with CD8+ cell depletion” value with MMTV-PyMT tumors [4] (TMP195 plus α-CD8) is given as “prevented the single agent efficacy”. For the same molecule, in the assay on MMTV-PyMT tumors [4] (TMP195 plus α-IFNγ), the “Granzyme B+ CD8+ T cells in tumors with IFNγ neutralization” value is listed as “disappearance”. Further, the “reduction of tumor burden with IFNγ neutralization” value in the assay with MMTV-PyMT tumors [4] (TMP195 plus α-IFNγ, 6 days) was “loss of efficacy”. In the assay on tumor macrophages (5 days of TMP195), the “apoptotic bodies within tumor macrophages (cleaved caspase 3 IHC)” value was “appearance of apoptotic bodies”; the “intracellular EPCAM in F480+ and CD11b+ cells (phagocytosed breast tumor cells)” value was “co-stain as EPCAM^+”. Also, in the assay on tumor macrophages (5 days of TMP195 vs vehicle), the “cells resembling tingible body macrophages (F480 IHC)” value is listed as “marked appearance”; the “proportion of F480+ and CD11b+ cells that express CD40” value is listed as “higher proportion”. For the same molecule, the “cell viability, 6 mouse MMTV-PyMT cell lines” value in assay [5] was “not directly cytotoxic; also recorded: does not affect cell viability”.
